The source of these data is PMC8836147, “Design, Synthesis and Antifungal/Nematicidal Activity of Novel 1,2,4-Oxadiazole Derivatives Containing Amide Fragments” (International Journal of Molecular Sciences, 2022).

Molecules are shown by their SMILES. Converted amounts (≈) assume the structure as drawn.

The test system of one series is S. sclerotiorum. The series is described as follows: In vitro mycelium growth inhibition test. The series is classed as cell-based. To be noted: Sclerotinia sclerotiorum, mycelial growth, mean ± SD of three replicates; for inhibition at 50 µg/mL: 50 μg/mL, read-out: Inhibition Rate (%) S. sclerotiorum; for EC50: read-out: EC50 against S. sclerotiorum. As for the experimental part:
(§1) B. cinerea and S. scleotiorum were kindly provided by the Department of Pesticides, College of Plant Protection, Nanjing Agricultural University (Nanjing, China). All compounds were evaluated for mycelium growth inhibition tests against the two plant pathogenic fungi mentioned in previous reports. These two fungi were inoculated on potato dextrose agar (PDA) plates and were grown in biochemical incubators at 25 ± 1 °C for 2–4 days. The new mycelium was used to determine the antifungal activity. The target compounds were dissolved in 100 µL DMF, and they were then added into the PDA media to make the concentration 50 µg/mL. Mycelia dishes of about 5 mm in diameter were cut from the culture medium. Mycelium were picked up with a sterile inoculation needle, and the sample was inoculated in the middle of a PDA plate in a sterile environment. Afterwards, a preliminary screening of fungal activity was performed. […] Each test was carried out three times. The radial growth of the fungal colonies was gauged and recorded when the diameters of the blank control mycelia reached 5.0–5.5 cm. […] The final data were analyzed using SPSS v.25.0 (IBM, New York, NY, USA). The following formula was used to calculate the fungi inhibition rate. Inhibition rate (%) = [(Mycelium diameter of negative control − Mycelium diameter of treatment)/(Mycelium diameter of negative control − 0.5)] × 100%(1)

In a further series the test system is B. cinerea. Nature of the series: In vitro mycelium growth inhibition test. The series is classed as cell-based. To be noted: Botrytis cinerea; 50 μg/mL; mycelial growth; mean ± SD of three replicates; read-out: Inhibition Rate (%) B. cinerea. As for the experimental part: as §1
For a further series, the system named is M. incognita. Nature of the series: microbe, parasite or virus in culture. The note with it: Meloidogyne incognita, 48 h, read-out: Corrected Mortality Rate ± SD (%) M. incognita. The text has this: (§2) M. incognita (parasitic on tomato plants), A. besseyi (potato dextrose agar–Botrytis cinerea breeding), B. xylophilus (potato dextrose agar–Botrytis cinerea breeding), and C. elegans (nematode growth medium–inactivated Escherichia coli OP50 cultivation) were provided by the Fine Chemical Research and Development Center of Guizhou University (Guizhou, China). The methodology used for the nematocidal bioassays of these target compounds was modified in the light of the conventional methods reported in the previously published literature. The nematicidal activity of the target compounds against four nematodes was determined using 48-well biochemical culture dishes. All of the compounds were dissolved with 100 μL DMF and were diluted with 1% Tween-80 to obtain 200 and 50 μg/mL concentrations for the bioassays. Fosthiazate and tioxazafen were used as positive controls at the same concentrations, and a negative control group was prepared without compounds using the same methodology. An amount of 10 µL of nematode suspension (about 50 nematodes) and 300 µL of the trial solution were added to corresponding hole, and each treatment was set to three repetitions. All of the 48-well plates were placed in a biochemical incubator at 27 °C for dark light culture. […] Corrected mortality (%) = [(mortality of treatment % − mortality of negative control %)/(1 − mortality of negative control %)] × 100%(3)

Another series relates to C. elegans. Nature of the series: microbe, parasite or virus in culture. To be noted: Caenorhabditis elegans, 48 h, read-out: Corrected Mortality Rate ± SD (%) C. elegans.
Text: as §2

In a further series the test system is A. besseyi. Nature of the series: microbe, parasite or virus in culture. The note with it: Aphelenchoides besseyi, 48 h, read-out: Corrected Mortality Rate ± SD (%) A. besseyi.
Text: as §2

Another series relates to B. xylophilus. The series is described as follows: microbe, parasite or virus in culture. The note with it: Bursaphelenchus xylophilus, 48 h, read-out: Corrected Mortality Rate ± SD (%) B. xylophilus.
Text: as §2

The nature of another series: MTT cytotoxicity assay. The series is classed as cell-based. The note with it: human, L-02 normal liver cells, L-02 cells. The method, then:
The human liver L-02 cells were obtained from the biology laboratory in Key Laboratory of Chemistry for Natural Products of Guizhou Province and Chinese Academy of Sciences (Guiyang, China). The cells were grown in Dulbecco’s Modified Eagle’s Medium (supplemented with 10% (v/v) FBS, 100 U/mL penicillin, and 100 μg/mL streptomycin) at 37 °C in a CO2 incubator (5% CO2 and 95% air, 95% humidity). The effect of some compounds on cell viability was determined with the MTT assay according to the previously published literature. A total of 5000 cells were inoculated in a 96-well plate and three wells of each concentration of test compound were used. A total of 24 h after inoculation, the cells had grown to ~60% confluency, and different concentrations of compounds were added, and then the cells were cultured for 48 h. DMSO was used as the control. A total of 20 μL of MTT solution was added to each well and incubated at 37 °C for 4 h. Formazan crystals were dissolved in 150 μL of DMSO and quantified using a microplate reader (Thermo Scientific, Vario Skan Flash, Shanghai Bio-Gene Technology Co., LTD, Shanghai, China) at 490 nm. The cytotoxicity was calculated according to following formula:Cytotoxicity (%) = [(OCK − OT)/OCK] × 100%(2) where OCK represents the optical density (OD) value of the blank control group, and OT represents the OD value of experimental group.

The inhibition is how much of the control response was suppressed. The EC50 is the concentration giving half of the maximal effect. As a reminder, the mortality is the percentage killed.

`O=C(NCCc1ccccn1)c1nc(-c2ccc(Cl)cc2)no1` [Compound F9, 3-(4-chlorophenyl)-N-(2-(pyridin-2-yl)ethyl)-1,2,4-oxadiazole-5-carboxamide]: the inhibition at 50 µg/mL stood at 61.1 ± 0.7% in the series on S. sclerotiorum and 26.7 ± 0.5% in the series on B. cinerea. In the series on S. sclerotiorum, the EC50 worked out at 18.7 ± 0.4 µg/mL (≈ 56.9 µM). For the same compound, the mortality at 50 µg/mL in the series with M. incognita was determined as 9.8 ± 2.5%; in the series with C. elegans, 62.1 ± 2.2%; in the series with A. besseyi, 0%; with B. xylophilus, 0%. The mortality at 200 µg/mL amounted to 56.3 ± 2.4% in the series with M. incognita, 87.6 ± 1.1% in the series on C. elegans, 12.8 ± 2.3% in the series with A. besseyi and 14.5 ± 2.5% in the series with B. xylophilus. For the same compound, in the series “MTT cytotoxicity assay”, the cytotoxicity at 48 h, 50 μg/mL was -2.5 ± 0.2%. Also, the cytotoxicity at 48 h, 100 μg/mL in “MTT cytotoxicity assay” stood at 7.1 ± 6.5%. For the same compound, in “MTT cytotoxicity assay”, the cytotoxicity at 48 h, 200 μg/mL was 31.5 ± 8.7%.
With `O=C(NCCc1ccccn1)c1nc(-c2ccccc2)no1` [Compound F1, 3-Phenyl-N-(2-(pyridin-2-yl)ethyl)-1,2,4-oxadiazole-5-carboxamide], in the series on S. sclerotiorum, the inhibition at 50 µg/mL worked out at 73.2 ± 0.1% and the EC50 turned out to be 20.8 ± 0.8 µg/mL (≈ 70.7 µM). For the same compound, the inhibition at 50 µg/mL with B. cinerea was determined as 24.2 ± 0.2%. In the series with M. incognita, the mortality at 50 µg/mL was determined as 6.9 ± 2.1% and the mortality at 200 µg/mL was determined as 43.5 ± 2.3%. Also, in the series with C. elegans, the mortality at 50 µg/mL is 51.3 ± 2.2% and the mortality at 200 µg/mL turned out to be 88.7 ± 1.3%. Further, in the series with A. besseyi, the mortality at 50 µg/mL was found to be 0% and the mortality at 200 µg/mL was 6.9 ± 1.2%. In the series on B. xylophilus, the mortality at 50 µg/mL was found to be 0% and the mortality at 200 µg/mL stood at 6.1 ± 1.1%. Moreover, in the series “MTT cytotoxicity assay”, the cytotoxicity at 48 h, 50 μg/mL was 4.7 ± 4.9%; the cytotoxicity at 48 h, 100 μg/mL worked out at 10.9 ± 5.9%; the cytotoxicity at 48 h, 200 μg/mL amounted to 15.4 ± 4.4%.
